We go through one compound from patent US10512631B2, “Chalcone compounds” (Beth Israel Deaconess Medical Center, Inc., priority 2015, dated 2019).

What all share (format): cell-based
Assay [1] deals with A549. Nature of the assay: Cytoxicity / crystal violet staining, A549. Conditions: average of triplicates, % of apoptotic cells vs DMSO controls, N.A. = not active at 10 μM. The procedure: (§1) PC3 (provided by Dr. Steven Balk's laboratory in Department of Medicine at Beth Israel Deaconess Medical Center), PANC02 and CRL2119 (provided by Dr. Pankaja Seth's laboratory in Department of Medicine at Beth Israel Deaconess Medical Center), A549 (ATCC) cell lines were cultured according to manufacturer's protocols. Briefly, PC3 were cultured in RPMI medium supplemented with 10% FBS (Atlanta). PANC-2, A549 and CRL2119 were cultured in DMEM High medium supplemented with 10% FBS (Atlanta). Human bronchial epithelial cells (BEC) were cultured in Airway Epithelial Cell Basal Medium with the Bronchial Epithelial cell growth kit (ATCC) according to manufacturer's protocol and used at passages 3-5.
(§2) Cells were seeded at 5×10^3 concentration in 96 well plates and treated with test compounds or DMSO (0.001-10 μM) for 72 hours. Culture medium was removed and cells were stained with crystal violet solution (Sigma-Aldrich) for 15 minutes while shaking at room temperature. Crystal violet was then removed and cells were repeatedly washed in water. Attached cells stained with crystal violet were dried and then resuspended in 10% acetic acid. Absorbance was measured at 562 nm. The intensity of staining corresponded directly to the number of live cells.

The test system of assay [2] is PC3 cells. Briefly: RT2 profiler PCR array Human Cancer Pathway. Conditions: after treatment vs DMSO. The procedure:
RT^2 profiler PCR array Human Cancer Pathway was purchased from SA Biosciences. RNA from PC3 cells treated with DMSO or Compound 6 were isolated and prepared for RT-PCR following manufacturer' protocol. Analysis was performed online using the software provided by SA Biosciences.

Assay [3] deals with PC3. Nature of the assay: Cytoxicity / crystal violet staining, PC3. Particulars: Homo sapiens, PC-3; 0.01-5 μM for 72 hours, n=4.
For assay [4], the system named is PC3 cells. Nature of the assay: Immunofluorescence of P-Histone H3 and α-tubulin in PC3 cells (siRNA STMN1 or control). The procedure: (§3) Immunofluorescence and immunostaining on cell lines and tumor samples were performed as described in Wegiel et al, Cancer research 2013, 73(23), 7009-21. Anti-mouse STMN1, anti-P (Ser10)-Histone H3, and α-tubulin antibody were obtained from Cell Signaling. β-actin antibody was obtained from Sigma-Aldrich. Cells were treated with Compound 6 (1 μM) or DMSO for 48 hours. After immunofluorescence staining, the number of P-Histone H3 was quantified per field of view at 40× magnification using Zeiss Axiovert Microscope.
siRNA against STMN1 and scramble siRNA were obtained from Darmacon (ONTARGET plus siRNA). PC3 cells were transiently transfected with siRNA against STMN1 or scramble siRNA using Lipofectamine 2000 (Invitrogen) as previously described in Wegiel et al., J. Biol. Chem. 2009, 7; 284(32):21369-78. Twenty four hours post-transfection, cells were split to 96 well plates and treated with test compounds for 72 hours. STMN1 levels were measured by immunoblotting to confirm successful knockdown.

Assay [5] deals with PC3. Briefly: Cytoxicity / crystal violet staining, PC3. Conditions: average of triplicates, % of apoptotic cells vs DMSO controls, N.A. = not active at 10 μM. The procedure: as §1, §2
Assay [6] concerns PC3 cells. Nature of the assay: Immunostaining of α-tubulin and β-actin in PC3 cells. Particulars: 24 hours. The procedure: Immunofluorescence and immunostaining on cell lines and tumor samples were performed as described in Wegiel et al, Cancer research 2013, 73(23), 7009-21. Anti-mouse STMN1, anti-P (Ser10)-Histone H3, and α-tubulin antibody were obtained from Cell Signaling. β-actin antibody was obtained from Sigma-Aldrich. […] After immunofluorescence staining, the number of P-Histone H3 was quantified per field of view at 40× magnification using Zeiss Axiovert Microscope.

Another assay deals with STMN1. Nature of the assay: STMN1 immunostaining and immunoblotting in PC3 cells. Conditions: PC3 cells, 0.01, 0.1 and 1 μM; 30 minutes, 1 hour, 24 hours. As for the experimental part: as §3
Snap-frozen tissue samples were homogenized in ice-cold tissue lysis buffer (250 mM NaCl, 5 mM EDTA, 1% Triton X-100, 10 mM Tris-HCl; pH 7.5) containing the protease inhibitor cocktail Complete Mini (Roche). For co-immunoprecipitation, 200 μg protein lysates in RIPA buffer and the protease inhibitor cocktail were mixed with appropriate antibodies and 30 μl Protein A/G Plus-agarose beads (Santa Cruz Biotechnology) and then rotated for 1 hour at room temperature. The proteins were washed with RIPA buffer and eluted (95° C., 5 min in SDS loading buffer). Immunoblotting was performed as previously described in Chin et al., Proc. Natl. Acad. Sci. USA 2007, 104(12), 5109-14. Antibodies: P (Ser967)-ASK1 (Cell Signaling), Ask1 (Cell Signaling), P-STMN1 (Ser16) (Cell Signaling), STMN1 (Cell Signaling), 13-Actin (Sigma) were used at 1:1000 dilution.
For orientation: In western blotting, separated proteins are transferred to a membrane and probed.

Assay [7] deals with A549. Nature of the assay: Cytoxicity / crystal violet staining, A549. Conditions: Homo sapiens, 0.01-5 μM for 72 hours, n=4.
The test system of assay [8] is PC3 cells. Briefly: Annexin V staining. Particulars: 24 hours. As for the experimental part:
PC3 cells were seeded at 1×10^5 concentration in 6 well plates 24 hours before experiment. Cells were treated with Compound 6 for 24 hours. Cells were harvested and apoptosis rate was measured using Annexin V-FITC staining according to manufacturer's protocol (BD Biosciences, San Jose, Calif.).

A further assay deals with DNA synthesis. Nature of the assay: BrDU proliferation. Conditions: data not shown.

As usually defined, the IC50 is the point on the concentration scale where inhibition reaches its midpoint. As for `Cn1ccc2cc(/C=C3\CCc4ccc(F)cc4C3=O)ccc21` [Compound 6, (2E)-7-fluoro-2-[(1-methyl-1H-indol-5-yl)methylidene]-1,2,3,4-tetrahydronaphthalen-1-one], the “Cytoxicity (% cell killing at 10 μM) A549” value in the assay with A549 [1] is on record as 47%. In the assay with PC3 cells [2], the “adrenomedullin mRNA elevation” value is on record as “more than 4 fold” and the “stathmin (STMN1) mRNA elevation” value is “more than 4 fold”. This compound returned an IC50 with PC3 [3] of 147 nM. Besides, in the assay with PC3 cells [4] (1 μM), the “number of cells undergoing mitosis (P-Histone H3) and normal mitotic spindles (α-tubulin)” value is on record as “blocked number of cells undergoing mitosis”. Further, the “microtubule destabilization, aberrant mitotic spindle and P-Histone H3 positive cells in the absence of STMN1” value with PC3 cells [4] (siRNA against STMN1, 1 μM) is on record as “in part reversed”. In the assay on PC3 [5], the “Cytoxicity (% cell killing at 10 μM) PC3” value stood at 49%. Further, the β-actin microfilament cytoskeleton result in the assay with PC3 cells [6] (1 μM) is given as “disintegrated β-actin microfilament cytoskeleton”. For the same compound, the “microtubule stability (α-tubulin immunostaining)” value in the assay with PC3 cells [6] (Compound 6 1 μM or docetaxel 20 nM) was “suppressed mitotic spindle formation, as well as accumulation of α-tubulin and microtubules”. The “STMN1 level by immunoblotting” value with STMN1 is recorded as “very early (30 minutes to 1 hour) stabilization of STMN1”. The compound also displayed an IC50 in the assay on A549 [7] of 208 nM. Also, the “Annexin V-positive cells” value with PC3 cells [8] is listed as “increased number of Annexin V-positive cells”. The “DNA synthesis (BrDU proliferation)” value in the assay with DNA synthesis is “did not inhibit DNA synthesis”.
